Reference: US8969325B2, “TRPV1 antagonists” (AbbVie Inc., priority 2011, dated 2015)

Experiments:
[1] = target: T1, human TRPV1 (Homo sapiens (Human), UniProt Q8NER1); assay: Capsaicin Activation Assay (intracellular Ca2+, FLIPR); type: cell-based; conditions: recombinant HEK293 cells expressing hTRPV1, 50 nM capsaicin
How it was run: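 Stably transfected HEK293 cells expressing human TRPV1 cDNA, plated the day before in poly-D-lysine plates. Compounds serially diluted from 10 mM DMSO stocks; intracellular Ca2+ fluorescence read on FLIPR at 1 to 5 second intervals.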

[2] = target: T1, human TRPV1; assay: Acid Activation Assay (pH 5.0, intracellular Ca2+, FLIPR); type: cell-based; conditions: percentage of the maximal pH 5.0-induced response remaining; recombinant HEK293 hTRPV1 cells; maximum concentration tested 37.5 μM
How it was run: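 HEK293 cells stably expressing recombinant hTRPV1, loaded with Calcium-4 dye 90-120 min at 25° C. Compounds added over a 12-point half-log range (top 37.5 μM), then pH 5.0 DPBS/MES challenge after 3 min; FLIPR peak fluorescence over baseline given as % of maximal pH 5.0 response.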

T1 sequence (Q8NER1 whole entry): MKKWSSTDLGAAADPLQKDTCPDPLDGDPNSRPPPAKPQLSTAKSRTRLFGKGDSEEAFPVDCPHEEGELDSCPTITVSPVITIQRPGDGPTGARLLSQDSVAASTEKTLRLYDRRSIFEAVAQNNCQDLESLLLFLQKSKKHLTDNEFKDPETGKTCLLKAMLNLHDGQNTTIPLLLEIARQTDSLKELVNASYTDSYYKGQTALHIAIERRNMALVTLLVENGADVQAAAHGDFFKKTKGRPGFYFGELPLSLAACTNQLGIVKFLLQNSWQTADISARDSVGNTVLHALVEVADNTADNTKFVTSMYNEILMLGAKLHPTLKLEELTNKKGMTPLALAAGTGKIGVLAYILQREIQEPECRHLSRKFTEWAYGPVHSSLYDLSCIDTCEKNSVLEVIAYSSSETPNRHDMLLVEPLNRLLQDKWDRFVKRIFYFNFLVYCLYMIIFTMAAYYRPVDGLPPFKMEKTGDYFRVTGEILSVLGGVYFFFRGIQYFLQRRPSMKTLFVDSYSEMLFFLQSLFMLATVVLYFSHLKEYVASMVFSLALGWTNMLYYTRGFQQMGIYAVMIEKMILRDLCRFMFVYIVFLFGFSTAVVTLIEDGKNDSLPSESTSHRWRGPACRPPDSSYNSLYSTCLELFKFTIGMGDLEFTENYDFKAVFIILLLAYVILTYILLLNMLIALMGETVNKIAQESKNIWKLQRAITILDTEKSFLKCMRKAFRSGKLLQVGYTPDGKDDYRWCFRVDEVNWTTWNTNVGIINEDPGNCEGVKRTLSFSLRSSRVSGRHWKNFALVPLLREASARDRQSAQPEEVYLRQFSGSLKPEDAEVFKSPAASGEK

| IC50 [1] [nM] | human TRPV1 H^+ (max % remain) [2] [%] | SMILES |
| --- | --- | --- |
| 470 | 22 | CN1C(=O)NCc2c(NC(=O)N[C@@H]3CC(CF)(CF)Oc4ccc(F)cc43)cccc21 [Example 152, 1-[(4R)-6-fluoro-2,2-bis(fluoromethyl)-3,4-dihydro-2H-chromen-4-yl]-3-(1-methyl-2-oxo-1,2,3,4-tetrahydroquinazolin-5-yl)urea] |
| 130 | 12 | CCC1(CC)C[C@@H](NC(=O)Nc2ccc3c(c2)NC(=O)CC3)c2ccc(Cl)cc2O1 [Example 225, 1-[(4R)-7-chloro-2,2-diethyl-3,4-dihydro-2H-chromen-4-yl]-3-(2-oxo-1,2,3,4-tetrahydroquinolin-7-yl)urea] |
| 770 | 102 | CC1(C)C[C@@H](NC(=O)Nc2ccc3c(c2)NC(=O)CO3)c2cc(F)ccc2O1 [Example 113, 1-[(4R)-6-fluoro-2,2-dimethyl-3,4-dihydro-2H-chromen-4-yl]-3-(3-oxo-3,4-dihydro-2H-1,4-benzoxazin-6-yl)urea] |
| 4.5 | 0 | O=C1COc2c(cccc2NC(=O)N[C@@H]2CC(CF)(CF)Oc3cc(Cl)ccc32)N1 [Example 323, 1-[(4R)-7-chloro-2,2-bis(fluoromethyl)-3,4-dihydro-2H-chromen-4-yl]-3-(3-oxo-3,4-dihydro-2H-1,4-benzoxazin-8-yl)urea] |
| 63 | 45 | Cn1c(=O)ccc2c(NC(=O)N[C@@H]3CC(CF)(CF)Oc4ccccc43)cccc21 [Example 80, 1-[(4R)-2,2-bis(fluoromethyl)-3,4-dihydro-2H-chromen-4-yl]-3-(1-methyl-2-oxo-1,2-dihydroquinolin-5-yl)urea] |
| 31 | 32 | CN1C(=O)NCc2c(NC(=O)N[C@@H]3CC(C)(C)Oc4c(F)cccc43)cccc21 [Example 135, 1-[(4R)-8-fluoro-2,2-dimethyl-3,4-dihydro-2H-chromen-4-yl]-3-(1-methyl-2-oxo-1,2,3,4-tetrahydroquinazolin-5-yl)urea] |
| 4700 | 89 | CCC1(CC)C[C@@H](NC(=O)Nc2ccc3c(c2)N(C)C(=O)CC3)c2cccc(F)c2O1 [Example 259, 1-[(4R)-2,2-diethyl-8-fluoro-3,4-dihydro-2H-chromen-4-yl]-3-(1-methyl-2-oxo-1,2,3,4-tetrahydroquinolin-7-yl)urea] |
| 19 | 28 | CCC1(CC)C[C@@H](NC(=O)Nc2cccc3c2ccc(=O)n3C)c2cc(F)ccc2O1 [Example 74, 1-[(4R)-2,2-diethyl-6-fluoro-3,4-dihydro-2H-chromen-4-yl]-3-(1-methyl-2-oxo-1,2-dihydroquinolin-5-yl)urea] |
| 130 | 0 | CCN1C(=O)NCc2c(NC(=O)N[C@@H]3CC(CF)(CF)Oc4cc(Cl)ccc43)cccc21 [Example 162, 1-[(4R)-7-chloro-2,2-bis(fluoromethyl)-3,4-dihydro-2H-chromen-4-yl]-3-(1-ethyl-2-oxo-1,2,3,4-tetrahydroquinazolin-5-yl)urea] |
| 28 | 57 | Cn1c(=O)ccc2c(NC(=O)N[C@@H]3CCOc4cc(OC(F)(F)F)ccc43)cccc21 [Example 87, 1-(1-methyl-2-oxo-1,2-dihydroquinolin-5-yl)-3-[(4R)-7-(trifluoromethoxy)-3,4-dihydro-2H-chromen-4-yl]urea] |
| 44 | 99 | CCC1(CC)C[C@@H](NC(=O)Nc2ccc3c(c2)NC(=O)CO3)c2ccccc2O1 [Example 102, 1-[(4R)-2,2-diethyl-3,4-dihydro-2H-chromen-4-yl]-3-(3-oxo-3,4-dihydro-2H-1,4-benzoxazin-6-yl)urea] |

Further lines, the molecule ahead of its results:

| SMILES | IC50 [1] [nM] | human TRPV1 H^+ (max % remain) [2] [%] |
| --- | --- | --- |
| C[C@@]1(CF)C[C@@H](NC(=O)Nc2ccc3c(c2)NC(=O)N(CCO)C3)c2ccc(C(F)(F)F)cc2O1 [Example 58, 1-[(2S,4R)-2-(fluoromethyl)-2-methyl-7-(trifluoromethyl)-3,4-dihydro-2H-chromen-4-yl]-3-[3-(2-hydroxyethyl)-2-oxo-1,2,3,4-tetrahydroquinazolin-7-yl]urea] | 63 | 2 |
| CN1Cc2ccc(NC(=O)N[C@@H]3CCc4cc(C(F)(F)F)ccc43)cc2NC1=O [Example 174, 1-(3-methyl-2-oxo-1,2,3,4-tetrahydroquinazolin-7-yl)-3-[(1R)-5-(trifluoromethyl)-2,3-dihydro-1H-inden-1-yl]urea] | 130 | 52 |
| CN1C(=O)CCc2ccc(NC(=O)N[C@@H]3CC(C)(C)Oc4c3ccc(Cl)c4F)cc21 [Example 294, 1-[(4R)-7-chloro-8-fluoro-2,2-dimethyl-3,4-dihydro-2H-chromen-4-yl]-3-(1-methyl-2-oxo-1,2,3,4-tetrahydroquinolin-7-yl)urea] | 120 | 71 |
| CC1(C)C[C@@H](NC(=O)Nc2ccc3c(c2)NC(=O)CO3)c2ccccc2O1 [Example 112, 1-[(4R)-2,2-dimethyl-3,4-dihydro-2H-chromen-4-yl]-3-(3-oxo-3,4-dihydro-2H-1,4-benzoxazin-6-yl)urea] | 440 | 101 |
| CC1(C)C[C@@H](NC(=O)Nc2ccc3c(c2)NC(=O)CC3)c2ccc(C(F)(F)F)nc2O1 [Example 247, 1-[(4R)-2,2-dimethyl-7-(trifluoromethyl)-3,4-dihydro-2H-pyrano[2,3-b]pyridin-4-yl]-3-(2-oxo-1,2,3,4-tetrahydroquinolin-7-yl)urea] | 38 | 18 |
| O=C(Nc1ccc2c(c1)NC(=O)C(N1CCCOCC1)C2)N[C@@H]1CC(CF)(CF)Oc2cc(Cl)ccc21 (stereo partly drawn) [Example 302, 1-[(4R)-7-chloro-2,2-bis(fluoromethyl)-3,4-dihydro-2H-chromen-4-yl]-3-[3-(1,4-oxazepan-4-yl)-2-oxo-1,2,3,4-tetrahydroquinolin-7-yl]urea] | 200 | 36 |
| CN1Cc2ccc(NC(=O)N[C@@H]3CCOc4c3cccc4C(F)(F)F)cc2NC1=O [Example 200, 1-(3-methyl-2-oxo-1,2,3,4-tetrahydroquinazolin-7-yl)-3-[(4R)-8-(trifluoromethyl)-3,4-dihydro-2H-chromen-4-yl]urea] | 90 | 21 |
| CN1C(=O)CCc2ccc(NC(=O)N[C@@H]3CC(C)(C)Oc4c3ccc(F)c4Cl)cc21 [Example 275, 1-[(4R)-8-chloro-7-fluoro-2,2-dimethyl-3,4-dihydro-2H-chromen-4-yl]-3-(1-methyl-2-oxo-1,2,3,4-tetrahydroquinolin-7-yl)urea] | 920 | 83 |
| CN1C(=O)NCc2c(NC(=O)N[C@@H]3CC(C)(C)Oc4c3ccc(F)c4Cl)cccc21 [Example 5, 1-[(4R)-8-chloro-7-fluoro-2,2-dimethyl-3,4-dihydro-2H-chromen-4-yl]-3-(1-methyl-2-oxo-1,2,3,4-tetrahydroquinazolin-5-yl)urea] | 17 | 24 |
| CN1C(=O)CCc2ccc(NC(=O)N[C@@H]3CC(CF)(CF)Oc4c3ccc(Cl)c4F)cc21 [Example 273, 1-[(4R)-7-chloro-8-fluoro-2,2-bis(fluoromethyl)-3,4-dihydro-2H-chromen-4-yl]-3-(1-methyl-2-oxo-1,2,3,4-tetrahydroquinolin-7-yl)urea] | 210 | 55 |
